Each compound was assayed against T1, recombinant human G9a protein (Homo sapiens, UniProt Q96KQ7) (assay: G9a inhibitory activity test (ALPHA)). Settings: biotinylated histone H3 peptide (1-21), SAM, read-out: Inhibitory activity (G9a IC50 value).
T1 construct: purchased BPS Bioscience Inc. #51001
T1 sequence (Q96KQ7 785-1210 limits assumed): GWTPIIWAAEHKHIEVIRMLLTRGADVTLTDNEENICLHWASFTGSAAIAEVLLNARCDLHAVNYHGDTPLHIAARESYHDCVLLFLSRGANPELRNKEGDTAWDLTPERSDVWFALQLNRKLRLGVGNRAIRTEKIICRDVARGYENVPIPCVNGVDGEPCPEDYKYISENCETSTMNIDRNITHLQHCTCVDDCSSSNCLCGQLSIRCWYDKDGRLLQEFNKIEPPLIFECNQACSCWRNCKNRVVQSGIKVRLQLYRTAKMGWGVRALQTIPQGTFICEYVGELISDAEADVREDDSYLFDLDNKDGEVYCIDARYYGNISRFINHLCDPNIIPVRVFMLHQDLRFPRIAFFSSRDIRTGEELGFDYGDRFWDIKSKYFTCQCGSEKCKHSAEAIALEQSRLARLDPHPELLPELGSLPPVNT
Format: biochemical
In short: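 Human G9a (0.05 to 0.1 nM) in Tris pH 9.0 buffer preincubated with compound 10 min, then biotinylated histone H3 (1-21) peptide and SAM mixed 1:1 from 500 nM and 150 μM solutions, 1 h at room temperature. H3K9me2 detected by AlphaLISA acceptor/streptavidin donor beads; IC50 from percent inhibition relative to no-compound and no-enzyme controls.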

| IC50 [nM] | SMILES |
| --- | --- |
| ≥ 200 | CCCC[C@H](NC(=O)c1[nH]c2c(c1C)C(=O)CC(C)(C)C2)C(=O)Nc1ccccc1OC [Example 1-33] |
| ≥ 200 | CCCCC(NC(=O)c1[nH]c2c(c1C)C(=O)CC(C)(C)C2)C(=O)Nc1cncc2ccccc12 (stereo not shown) [Example 1-15] |
| ≥ 200 | Cc1c(C(=O)NC(CCC2CC2)C(=O)Nc2ccc(OC3COC3)nc2)[nH]c2c1C(=O)CC(C)(C)C2 (stereo not shown) [Example 1-71] |
| ≥ 200 | CCCCC(NC(=O)c1[nH]c2c(c1C)C(=O)CC(C)(C)C2)C(=O)Nc1ccc2[nH]ccc2c1 (stereo not shown) [Example 1-96] |
| < 50 | CCc1ccccc1NC(=O)C(CCC1CC1)NC(=O)c1[nH]c2c(c1C)C(=O)CC(C)(C)C2 (stereo not shown) [Example 1-84] |
| ≥ 200 | CCCCC(NC(=O)c1[nH]c2c(c1C)C(=O)CC(C)(C)C2)C(=O)Nc1cc(C)ccc1OC (stereo not shown) [Example 1-38] |
| < 50 | Cc1c(C(=O)NC(CCC2CC2)C(=O)Nc2ccc(OC3CCN(C)CC3)cc2)[nH]c2c1C(=O)CC(C)(C)C2 (stereo not shown) [Example 1-85] |
| ≥ 200 | CCCCC(NC(=O)c1[nH]c2c(c1C)C(=O)CC(C)(C)C2)C(=O)Nc1cccc(C#N)c1 (stereo not shown) [Example 1-10] |
| ≥ 200 | CCCCC(NC(=O)c1[nH]c2c(c1C)C(=O)CC(C)(C)C2)C(=O)Nc1cccc2ncccc12 (stereo not shown) [Example 1-14] |
| ≥ 200 | Cc1ccc2c(c1)N(C(=O)C(CCC1CC1)NC(=O)c1[nH]c3c(c1C)C(=O)CC(C)(C)C3)CC2 (stereo not shown) [Example 1-78] |
| ≥ 200 | CCCCC(NC(=O)c1[nH]c2c(c1C)C(=O)CC(C)(C)C2)C(=O)Nc1ccc2[nH]c(C)cc2c1 (stereo not shown) [Example 1-95] |
| ≥ 200 | Cc1c(C(=O)NC(CCC2CC2)C(=O)Nc2ccc(SC(F)F)cc2)[nH]c2c1C(=O)CC(C)(C)C2 (stereo not shown) [Example 1-65] |
| ≥ 200 | CCCCC(NC(=O)c1[nH]c2c(c1C)C(=O)CC(C)(C)C2)C(=O)NCc1ccc(N2CCN(C)CC2)cc1 (stereo not shown) [Example 1-54] |
| ≥ 200 | CCCCC(NC(=O)c1[nH]c2c(c1C)C(=O)CC(C)(C)C2)C(=O)NCc1ccccc1OC (stereo not shown) [Example 1-44] |

Same assay, conditions: read-out: Inhibitory activity (G9a IC50)

| IC50 [nM] | SMILES |
| --- | --- |
| ≥ 200 | CCCCC(NC(=O)c1[nH]c2ccc(OCC)cc2c1C)C(=O)Nc1ccc(OC2CCN(C)CC2)nc1 (stereo not shown) [Example 6-95] |
| ≥ 200 | CCCCC(NC(=O)Cc1ccccc1C)C(=O)Nc1ccc(OC2CCN(C)CC2)nc1 (stereo not shown) [Example 11-7] |
| < 50 | CCCC[C@H](NC(=O)c1[nH]c2c(c1C)C(=O)CC(C)(C)C2)C(=O)NC(c1ccccc1)C(C)C (stereo partly shown) [Example 6-47] |
| < 50 | Cc1c(C(=O)N[C@@H](CCC2CC2)C(=O)N[C@@H](C)c2ccccc2)[nH]c2c1C(=O)CC(C)(C)C2 [Example 13-1, N-((S)-4-cyclopropyl-1-oxo-1-(((S)-1-phenylethyl)amino)butan-2-yl)-3,6,6-trimethyl-4-oxo-4,5,6,7-tetrahydro-1H-indole-2-carboxamide] |
| 50 to 200 | Cc1cc(-n2ccc3cnccc32)ccc1C(=O)NC(CCC1CC1)C(=O)Nc1ccc(C#N)nc1 (stereo not shown) [Example 6-83] |
| 50 to 200 | CC(C)c1c(C(=O)N[C@@H](CCC2CC2)C(=O)Nc2ccc(C#N)cc2)[nH]c2c1C(=O)CC(C)(C)C2 [Example 15-4] |
| < 50 | CCCCC(NC(=O)c1[nH]c2c(c1C)C(=O)CC(C)(C)C2)C(=O)NCc1ccc(CN2CCCC2)cc1 (stereo not shown) [Example 18-11] |
| 50 to 200 | CCCC[C@H](NC(=O)c1[nH]c2c(c1C(C)C)C(=O)CC(C)(C)C2)C(=O)N[C@@H](C)c1ccccc1 [Example 6-41] |
| 50 to 200 | CCCCC(NC(=O)c1[nH]c2c(c1C)C(=O)CC(C)(C)C2)C(=O)Nc1cnccc1CC (stereo not shown) [Example 6-22] |
| ≥ 200 | CCCCC(NC(=O)c1[nH]c(C)c(C(=O)OCC)c1C)C(=O)Nc1ccc(OC2CCN(C)CC2)nc1 (stereo not shown) [Example 6-91] |
| 50 to 200 | CCCCC(NC(=O)c1[nH]c2c(c1C)C(=O)CC(C)(C)C2)C(=O)N[C@@H](CO)c1ccccc1 (stereo partly drawn) [Example 3-1, N-(1-(((R)-2-hydroxy-1-phenylethyl)amino)-1-oxohexan-2-yl)-3,6,6-trimethyl-4-oxo-4,5,6,7-tetrahydro-1H-indole-2-carboxamide] |
| 50 to 200 | CCCCC(NC(=O)c1[nH]c2c(c1C)C(=O)CC(C)(C)C2)C(=O)Nc1ccc(N2CCNCC2)nc1 (stereo not shown) [Example 26-5] |
| ≥ 200 | CCCCC(NC(=O)c1ccc(N2CCN(C)CC2)cc1C)C(=O)Nc1ccc(OC2CCN(C)CC2)nc1 (stereo not shown) [Example 11-1, 2-methyl-4-(4-methylpiperazin-1-yl)-N-[1-[[6-(1-methylpiperidin-4yl)oxypyridin-3-yl]amino]-1-oxohexan-2-yl]benzamide] |
| < 50 | COc1ccc(NC(=O)C(CCC2CC2)NC(=O)c2ccc(Nc3ccncc3)cc2C(F)(F)F)cn1 (stereo not shown) [Example 6-78] |
| ≥ 200 | CCCC[C@H](NC(=O)c1[nH]c2c(c1C)C(=O)CC(C)(C)C2)C(=O)N1CCc2c(OCC3CCN(C)CC3)cccc21 [Example 6-105] |
| < 50 | CCCCC(NC(=O)c1[nH]c2c(c1C)C(=O)CC(C)(C)C2)C(=O)NCc1ccc(CN2CCCCC2)cc1 (stereo not shown) [Example 18-9] |
| < 50 | CCc1ccc(NC(=O)C(CCC2CC2)NC(=O)c2ccc(Nc3ccncc3)cc2)cn1 (stereo not shown) [Example 6-86] |

| IC50 [nM] | SMILES |
| --- | --- |
| ≥ 200 | CCCCC(NC(=O)c1cc2cc(OC)c(OC)cc2[nH]1)C(=O)Nc1ccc(OC2CCN(C)CC2)nc1 (stereo not shown) [Example 6-97] |
| < 50 | Cc1cc(Nc2ccncc2)ccc1C(=O)NC(CCC1CC1)C(=O)Nc1ccc(C#N)nc1 (stereo not shown) [Example 6-84] |
| ≥ 200 | Cc1c(C(=O)NC(CCC2CC2)C(=O)Nc2cccnc2)[nH]c2c1C(=O)CC(C)(C)C2 (stereo not shown) [Example 6-16] |
| 50 to 200 | Cc1c(C(=O)NC(CCC2CC2)c2nc3c(CN4CCCC4)cccc3n2C)[nH]c2c1C(=O)CC(C)(C)C2 (stereo not shown) [Example 31-5] |
| 50 to 200 | Cc1c(C(=O)N[C@@H](CCC2CC2)C(=O)N2CCc3c(OCCN(C)C)cccc32)[nH]c2c1C(=O)CC(C)(C)C2 [Example 6-107] |
| ≥ 200 | CCCC[C@H](NC(=O)c1[nH]c2c(c1C)C(=O)CC(C)(C)C2)C(=O)N1CCc2c(OCCN3CCCC3)cccc21 [Example 6-103] |
| ≥ 200 | CCCC[C@H](NC(=O)c1[nH]c2c(c1CC)CCC(C)(C)C2)C(=O)Nc1ccccc1 [Example 6-101] |
| ≥ 200 | CCCCC(NC(=O)CC1CCCCC1)C(=O)Nc1ccc(OC2CCN(C)CC2)nc1 (stereo not shown) [Example 11-2] |
| 50 to 200 | CCCC[C@H](NC(=O)c1[nH]c2c(c1C(C)C)C(=O)CC(C)(C)C2)C(=O)Nc1ccccc1 [Example 6-36] |
| ≥ 200 | COc1ccc(NC(=O)C(CCC2CC2)NC(=O)c2ccc(Nc3ccnc(OC)c3)cc2)cn1 (stereo not shown) [Example 6-64] |
| < 50 | CCCCC(NC(=O)c1[nH]c2c(c1C)C(=O)CC(C)(C)C2)C(=O)Nc1cccc(CN(C)C)c1 (stereo not shown) [Example 18-1, N-[1-[3-[(dimethylamino)methyl]anilino]-1-oxohexan-2-yl]-3,6,6-trimethyl-4-oxo-5,7-dihydro-1H-indole-2-carboxamide] |
| ≥ 200 | Cc1c(C(=O)NC(CCC2CC2)C(=O)N(C)Cc2ccccc2)[nH]c2c1C(=O)CC(C)(C)C2 (stereo not shown) [Example 6-19] |
| ≥ 200 | CCCCC(NC(=O)c1[nH]c2c(c1C)C(=O)CC(C)(C)C2)C(=O)NCc1ccc(CN2CCOCC2)cc1 (stereo not shown) [Example 18-5] |
| ≥ 200 | Cc1c(C(=O)N[C@H](CCC2CC2)C(=O)N(C)[C@@H](C)c2ccccc2)[nH]c2c1C(=O)CC(C)(C)C2 [Example 13-6] |
| ≥ 200 | CCCCC(NC(=O)c1sc(-c2cccnc2)nc1C)C(=O)Nc1ccc(OC2CCN(C)CC2)nc1 (stereo not shown) [Example 6-99] |
| ≥ 200 | Cc1c(C(=O)NC(CCC2CC2)C(=O)Nc2ccccn2)[nH]c2c1C(=O)CC(C)(C)C2 (stereo not shown) [Example 6-9] |
| 50 to 200 | CCCCC(NC(=O)c1[nH]c2c(c1C)C(=O)CC(C)(C)C2)C(=O)Nc1ccc(OCCNC)nc1 (stereo not shown) [Example 24-1, 3,6,6-trimethyl-N-[1-[[6-[2-(methylamino)ethoxy]pyridin-3-yl]amino]-1-oxohexan-2-yl]-4-oxo-5,7-dihydro-1H-indole-2-carboxamide] |

Continued, compound first:

| SMILES | IC50 [nM] |
| --- | --- |
| CCCC[C@H](NC(=O)c1[nH]c2c(c1C)C(=O)CC(C)(C)C2)c1nc2ccc(OCCO)cc2[nH]1 [Example 36, (S)-N-(1-(6-(2-hydroxyethoxy)-1H-benzo[d]imidazol-2-yl)pentyl)-3,6,6-trimethyl-4-oxo-4,5,6,7-tetrahydro-1H-indole-2-carboxamide] | ≥ 200 |
| COc1ccc(NC(=O)C(CCC2CC2)NC(=O)c2ccc(C3CCNCC3)cc2)cn1 (stereo not shown) [Example 28, N-[4-cyclopropyl-1-[(6-methoxypyridine-3-yl)amino]-1-oxobutan-2-yl]-4-piperidin-4-ylbenzamide] | < 50 |
| Cc1c(C(=O)NC(CCC2CC2)C(=O)N2CCc3c(OCCCN(C)C)cccc32)[nH]c2c1C(=O)CC(C)(C)C2 (stereo not shown) [Example 1-119] | ≥ 200 |
| Cc1c(C(=O)NC(CCC2CC2)C(=O)NCc2ccc(CN(C)C)cc2)[nH]c2c1C(=O)CC(C)(C)C2 (stereo not shown) [Example 1-149] | < 50 |
| Cc1c(C(=O)NC(CCC2CC2)C(=O)N2CCc3c(OCCN4CCCC4)cccc32)[nH]c2c1C(=O)CC(C)(C)C2 (stereo not shown) [Example 1-120] | 50 to 200 |
| Cc1c(C(=O)NC(CCC2CC2)C(=O)N2CCc3cc(CN4CCCC4)ccc32)[nH]c2c1C(=O)CC(C)(C)C2 (stereo not shown) [Example 1-127] | 50 to 200 |
| CCCCC(NC(=O)c1[nH]c2c(c1C)C(=O)CC(C)(C)C2)C(=O)Nc1cccc(CN2CCCC2)c1 (stereo not shown) [Example 1-113] | < 50 |

From patent US20230127046A1, “G9a INHIBITOR” (RIKEN, priority 2019, published 2023)
